Patent US20240366558A1, “TREATING LONG COVID-19 WITH UROLITHINS” (Amazentis SA, priority 2021, published 2024)

Assays:
Long COVID = assay: Patients afflicted with Long COVID administered 500 mg Mitopure (Urolithin A); type: in vivo, human; conditions: three Long COVID patients, patient-indicated
Protocol: Three patients afflicted with Long COVID were administered 500 mg Mitopure™ (Urolithin A). Each patient indicated improvement in symptoms including reduced fatigue and improved muscle function.

human PBMCs = assay: RNA-seq transcriptomic analysis / GSEA of PBMCs from healthy elderly supplemented with Urolithin A; type: in vivo; conditions: 500 mg/day for 28 days, end of treatment vs baseline, placebo-filtered
Protocol: RNA was extracted from frozen human PBMCs and quality of extraction controlled with Agilent Fragment Analyzer System. RNA-seq library was prepared as strand-specific cDNA library, after the following steps: Purification of poly-A containing mRNA molecules; mRNA fragmentation; Random primed cDNA synthesis (strand-specific); Adapter ligation and adapter specific PCR amplification. RNA-seq run was performed with the NovaSeq6000 using S4 flowcells with 2×150 bp giving at least 30 million read pairs per sample
The RNA-Seq reads were aligned to the reference human transcriptome using Bowtie generating genome/transcriptome alignments. TopHat identifid the potential exon-exon splice junctions of the initial alignment. Then Cufflinks identified and quantified the transcripts from the preprocessed RNA-Seq alignment assembly. After this, Cuffmerge merged the identified transcript pieces to full length transcripts and annotates the transcripts based on the given annotations. Finally, merged transcripts from two or more samples/conditions were compared, using Cuffdiff to determine the differential expression levels at transcript and gene level including a measure of significance between samples/conditions.
Gene set enrichment analysis (GSEA) was conducted using R package clusterProfiler, v. 3.18.068. Enrichments of Gene Ontology (GO) Biological Process (BP) was investigated. All the genes subjected to the DE analysis and that passed the independent filtering of DEseq2 were ranked by shrunk log 2 fold change values and used as input data for the analysis. Ensembl IDs of the genes were converted to Entrez IDs for the analysis using biomaRt, v. 2.46. Minimum and maximum genes et sizes were set to 15 and 500, respectively. In order to adjust for the placebo effect, the GSEA results of Urolithin A at 500 mg were filtered to exclude enriched terms (p-value <0.05) obtained from the GSEA of the Placebo DEGs. Key pathways were visualised as bar plots ranked by Normalized Enrichment score (NES).
RNA-seq transcriptomic analysis was performed in healthy elderly supplemented with either Urolithin A (UA) at 500 mg/day or Placebo for 28 days. Peripheral blood mononuclear cells (PBMCs) were isolated and collected at baseline and at the end of the study. RNA was extracted from these subjects and used to perform RNA-seq and determine biological pathways modulated specifically by Urolithin A, but not Placebo, comparing end-of treatment to baseline

O=c1oc2cc(O)ccc2c2ccc(O)cc12 [Urolithin A, urolithin A]
fatigue (Long COVID): reduced
muscle function (Long COVID): improved
symptoms (Long COVID): improvement
Gene Ontology gene set "mitochondrial gene expression" (human PBMCs): up-regulated
Gene Ontology gene set "mitochondrial respiratory chain complex assembly" (human PBMCs): up-regulated
Gene Ontology gene set "neutrophil activation" (human PBMCs): down-regulated
Gene Ontology gene set "oxidative phosphorylation" (human PBMCs): up-regulated
Gene Ontology gene set "regulation of response to cytokine stimulus" (human PBMCs): down-regulated
